Drawing on patent US20080261994A1, “CYCLOPROPANE COMPOUNDS AND PHARMACEUTICAL USE THEREOF” (Japan Tobacco Inc., priority 2003, published 2008), this text covers IC50 for 7 compounds.

Molecules are shown by their SMILES. Bounds are passed on as bounds.

Holding throughout (type): biochemical
One test has as its target T1, aggrecanase-1 (Homo sapiens, UniProt O75173).
T1 sequence (O75173 213-837): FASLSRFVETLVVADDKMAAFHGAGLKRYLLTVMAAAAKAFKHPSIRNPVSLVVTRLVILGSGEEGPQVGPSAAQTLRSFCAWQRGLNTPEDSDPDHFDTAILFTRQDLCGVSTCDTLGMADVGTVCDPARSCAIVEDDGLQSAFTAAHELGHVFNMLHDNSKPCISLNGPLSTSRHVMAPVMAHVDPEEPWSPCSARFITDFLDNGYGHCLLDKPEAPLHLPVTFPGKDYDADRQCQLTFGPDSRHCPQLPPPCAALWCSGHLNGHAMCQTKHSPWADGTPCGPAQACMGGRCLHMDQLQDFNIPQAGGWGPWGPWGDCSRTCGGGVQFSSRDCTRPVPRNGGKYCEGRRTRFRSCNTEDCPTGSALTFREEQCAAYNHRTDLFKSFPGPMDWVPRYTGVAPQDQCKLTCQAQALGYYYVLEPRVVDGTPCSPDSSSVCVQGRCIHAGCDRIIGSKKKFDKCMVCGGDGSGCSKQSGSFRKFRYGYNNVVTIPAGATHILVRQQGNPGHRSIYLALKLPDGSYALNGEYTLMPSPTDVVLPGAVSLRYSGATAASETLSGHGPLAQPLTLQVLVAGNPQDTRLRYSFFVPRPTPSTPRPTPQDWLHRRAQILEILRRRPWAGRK
As to the kind of experiment: Aggrecanase-1 inhibitory action (Particle Assay, GAG release from aggrecan-containing polyacrylamide particles). The settings on record: Experimental Example 1; read-out: IC50 AG1. A digest of the protocol:
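Enzyme and compound incubated with aggrecan-containing polyacrylamide particles in Tris-HCl buffer at 37° C for 15 h. Released GAG in supernatant measured with 1,9-dimethylmethylene blue at 595 nm against chondroitin sulfate standard; % inhibition from enzyme-free and inhibitor-free wells, reported as TC50 (μM).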

The target of another test is T2, MMP-1 (Homo sapiens, UniProt P03956).
T2 sequence (P03956 100-469): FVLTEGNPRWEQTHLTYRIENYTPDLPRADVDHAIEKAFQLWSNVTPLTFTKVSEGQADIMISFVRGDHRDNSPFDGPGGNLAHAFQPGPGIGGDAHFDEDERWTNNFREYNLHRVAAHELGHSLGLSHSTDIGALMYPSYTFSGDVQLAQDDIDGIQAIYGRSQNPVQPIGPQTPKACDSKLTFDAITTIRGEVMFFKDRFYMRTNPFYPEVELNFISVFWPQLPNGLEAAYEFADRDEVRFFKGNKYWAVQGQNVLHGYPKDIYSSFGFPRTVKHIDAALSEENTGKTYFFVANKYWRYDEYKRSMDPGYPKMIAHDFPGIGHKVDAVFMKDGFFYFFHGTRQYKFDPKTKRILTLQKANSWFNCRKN
As to the kind of experiment: MMP-1 inhibitory action (Type I collagen Activity Measurement kit, FITC-labeled collagen type I). The conditions noted are these: Experimental Example 2; read-out: IC50 MMP1.

A further test concerns the target T3, Recombinant Human MMP-13 (Homo sapiens, UniProt P45452).
T3 construct: purchased R&D systems 511-MM
The experiment in a line: MMP-13 inhibitory activity (MMP-13 specific fluorescent substrate with quencher). The settings on record: Experimental Example 3; read-out: IC50 MMP13. A digest of the protocol: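 Recombinant human MMP-13 with test compound, reaction started with quenched fluorogenic peptide 7-MCA-Pro-CHA-Gly-NVal-His-Ala-DPA in Tris-HCl buffer, 1 h at 25 °C, stopped with acetic acid. Fluorescence at Ex 325/Em 405 nm; % inhibition versus enzyme-free and inhibitor-free wells, reported as IC50 (μM).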

Usually IC50 stands for the concentration needed to halve the response being measured. As for `CC1(c2cccnc2)CC1(NS(=O)(=O)c1ccc(-c2cc(C(F)(F)F)on2)s1)C(=O)O` (stereo not drawn) [Example 2-617], the IC50 is < 1000 nM at aggrecanase-1, ≥ 1000 nM at MMP-1 and ≥ 1000 nM on Recombinant Human MMP-13.
Consider `C[C@]1(c2cccc(F)c2)C[C@@]1(NS(=O)(=O)c1ccc(-c2cc(C(F)(F)F)on2)s1)C(=O)O` [Example 2-618], for which the IC50 at aggrecanase-1 is < 100 nM; on MMP-1 it was < 1000 nM; on Recombinant Human MMP-13 it was < 1000 nM.
With `C[C@]1(c2cccc(Cl)c2)C[C@@]1(NS(=O)(=O)c1ccc(-c2cc(C(F)(F)F)on2)s1)C(=O)O` [Example 2-619], the half-inhibitory concentration (IC50) at aggrecanase-1 is < 100 nM; at MMP-1, < 1000 nM; at Recombinant Human MMP-13 it was < 1000 nM.
`C[C@]1(c2ccc(Cl)cc2)C[C@@]1(NS(=O)(=O)c1ccc(-c2cc(C(F)(F)F)on2)s1)C(=O)O` [Example 2-620]: the half-inhibitory concentration (IC50) on aggrecanase-1 is < 100 nM; at MMP-1, < 1000 nM; on Recombinant Human MMP-13, < 100 nM.
Consider `C[C@]1(c2ccc(F)cc2)C[C@@]1(NS(=O)(=O)c1ccc(-c2cc(C(F)(F)F)on2)s1)C(=O)O` [Example 2-621], for which the values for the IC50 at aggrecanase-1, at MMP-1 and at Recombinant Human MMP-13 were < 100 nM, < 1000 nM and < 100 nM, respectively.
Turning to `CC1[C@H](c2ccccc2)[C@]1(NS(=O)(=O)c1ccc2nc(-c3ccccc3)cn2c1)C(=O)O` (stereo partly drawn) [Example 2-622], the IC50 at aggrecanase-1 was ≥ 1000 nM; on MMP-1, ≥ 1000 nM; on Recombinant Human MMP-13, < 1000 nM.
As for `CC1[C@](C)(c2ccccc2)[C@]1(NS(=O)(=O)c1ccc(-c2cc(C(F)(F)F)on2)s1)C(=O)O` (stereo partly drawn) [Example 2-623], the IC50 is < 100 nM at aggrecanase-1, < 1000 nM at MMP-1 and < 100 nM at Recombinant Human MMP-13.
